Laboratory results: US20250319100A1, “ANTI-TUMOR COMBINED PREPARATION COMPRISING HYDROXYPROGESTERONE CAPROATE AND USE THEREOF” (SHENZHEN EVERGREEN THERAPEUTICS CO., LTD., priority 2021, published 2025)

Experiments:
[1] = system: 4T1-hPD-L1 cells; experiment: Tumor growth inhibition in Balb/c mice subcutaneously inoculated with 4T1 cells overexpressing human PD-L1; type: in vivo; settings: for Tumor growth inhibition (result in words): FIG. 1, tumor volume growth trend post-administration
Procedure: Antibody Anti-PD-L1 was purchased from Rongchang Biopharmaceuticals (Yantai) Co., Ltd., batch number: RC98-1-A20170426, with a storage solution concentration of 6.87 mg/ml, dissolved in 0.9% sodium chloride solution. Prior to each administration, the Anti-PD-L1 was prepared by diluting it in 0.9% sodium chloride solution to obtain a concentration of 1 mg/ml.
Hydroxyprogesterone Caproate (OHPC) was purchased from Hongyan Pharmaceutical and Chemical Co., Ltd., as a powder. Prior to each administration, OHPC powder was dissolved in DMSO. Once fully dissolved, it was diluted in sesame oil to obtain an OHPC concentration of 4 mg/ml for the investigational drug solution.
Murine breast cancer 4T1 cells were purchased from Beijing Biosynthgene Biotech Co., Ltd. Cells were cultured at 37° C. and 5% CO2 in DMEM culture medium containing 10% inactivated fetal bovine serum. The 4T1 cells were genetically modified using conventional methods to overexpress human PD-L1, and these cells were named 4T1-hPD-1.
Female Balb/c mice (6-9 weeks old, weighing 16-22 g), SPF grade, were subcutaneously inoculated with 5×10^4 cells/0.1 ml concentration of 4T1-hPD-1 cells suspended in PBS at a volume of 0.1 ml on the right side. When the average tumor volume reached approximately 100 mm3, appropriate mice were selected based on tumor volume and weight and were evenly distributed into four experimental groups, each with 8 mice. Drug administration commenced on the same day as outlined in the table below:
Throughout the observation period, tumor volume and animal weight were measured weekly, and the values were recorded. Upon completion of the observation period, the experiment was concluded.
Measurements of tumor volume were conducted twice a week post-grouping using a vernier caliper. Prior to euthanasia, tumor dimensions including the longest and shortest diameters were measured. The formula used to calculate tumor volume: Tumor Volume=0.5×Longest Diameter×Shortest Diameter^2.
Ti represents the mean tumor volume of the treatment group on day i of drug administration, TO denotes the mean tumor volume of the treatment group on day 0 of drug administration. Vi stands for the mean tumor volume of the solvent control group on day i of drug administration, and VO indicates the mean tumor volume of the solvent control group on day 0 of drug administration.
Original data from observations and measurements were recorded. Analysis and processing were based on this raw data. Results were expressed as Mean±Standard Error of Mean (SEM). Statistical analysis was performed on tumor volume data, where P<0.05 was considered statistically significant. Analysis was conducted considering both statistical and biological significance.

[2] = system: CD8+ T cells in tumor tissue; experiment: Infiltration of CD8+ T cells in tumor tissue (CD8 staining of paraffin tumor sections); type: in vivo, Balb/c mice; settings: FIGS. 2 and 3, CD8 staining density IOD/area, p<0.01 OHPC group vs control group
Procedure: FIG. 2 illustrates the infiltration of CD8 T cells in mouse tumors post-administration (400× magnification). FIG. 3 presents the analysis of CD8 staining density on tumor sections after administration, represented in integrated optical density (IOD)/area, where ** denotes p<0.01 compared between the OHPC group and the control group. At the conclusion of the experiment, tumor tissue was embedded in paraffin, sectioned, and stained for CD markers. This was conducted to compare the infiltration of CD8+ T cells within tumors across different groups.

## CCCCCC(=O)O[C@]1(C(C)=O)CC[C@H]2[C@@H]3CCC4=CC(=O)CC[C@]4(C)[C@H]3CC[C@@]21C [OHPC, 17α-Hydroxyprogesterone caproate]
[1]; Day 17, Anti-PD-L1 10 mg/kg intravenous and/or OHPC 20 mg/kg intramuscular, twice per week, Mean ± Standard Error
  Tumor Volume Day 17: 1203 ± 384 mm^3
[1]; Day 17 versus vehicle (PBS) control, Anti-PD-L1 10 mg/kg intravenous and/or OHPC 20 mg/kg intramuscular, twice per week
  TGITV (tumor growth inhibition rate by tumor volume): −14%
[1]
  Tumor growth inhibition (result in words): no inhibitory effect
[1]; listed as hydroxyprogesterone caproate
  Tumor growth inhibition (result in words): augments the anti-tumor activity of the monoclonal antibody Anti-PD-L1
[1]; baseline before first dose, Mean ± Standard Error, 8 mice per group
  Tumor Volume Pre-administration: 87 ± 24 mm^3
[2]
  Infiltration of CD8+ T cells in tumor tissue (result in words): significantly enhances the infiltration of CD8+ T cells
[2]; listed as Hydroxyprogesterone Caproate (OHPC)
  Infiltration of CD8+ T cells in tumor tissue (result in words): notably enhanced the infiltration of CD8+ T cells
